{
  "source": "ChEMBL document CHEMBL2202963",
  "about": "“GPR119 Modulators for the Treatment of Diabetes, Obesity, and Related Diseases: Patent Highlight” (ACS Med Chem Lett, 2012)",
  "key": {"[1]": {"target": "T1, Glucose-dependent insulinotropic receptor (Homo sapiens, UniProt Q8TDV5)", "T1 sequence (Q8TDV5 whole entry)": "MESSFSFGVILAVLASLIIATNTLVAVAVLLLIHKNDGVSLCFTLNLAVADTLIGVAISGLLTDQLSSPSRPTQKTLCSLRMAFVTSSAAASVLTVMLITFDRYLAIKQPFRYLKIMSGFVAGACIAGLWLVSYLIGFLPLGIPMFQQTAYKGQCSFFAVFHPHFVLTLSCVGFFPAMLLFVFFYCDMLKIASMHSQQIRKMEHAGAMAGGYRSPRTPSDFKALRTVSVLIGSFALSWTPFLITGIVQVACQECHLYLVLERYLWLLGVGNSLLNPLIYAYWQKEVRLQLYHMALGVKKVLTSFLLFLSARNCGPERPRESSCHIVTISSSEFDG", "assay": "Agonist activity at human GPR119 expressed in MIN6 cells assessed as intracellular cAMP concentration after 45 mins by Alphascreen analysis", "assay_type": "functional, cell-based"}, "Rattus norvegicus [2]": {"species": "Rattus norvegicus", "assay": "Drug metabolism in rat assessed as 3-fluoro-4-(5-fluoro-6-(4-(3-(2-fluoropropan-2-yl)-1,2,4-oxadiazol-5-yl)piperidin-1-yl)pyrimidin-4-ylamino)-N-methylbenzamide metabolite by LC/MS/MS analysis", "assay_type": "ADME, organism-based", "conditions": "in vivo; call rule not given here"}, "Rattus norvegicus [3]": {"species": "Rattus norvegicus", "assay": "Drug metabolism in rat assessed as 3-fluoro-4-(5-fluoro-6-(4-(3-(2-fluoropropan-2-yl)-1,2,4-oxadiazol-5-yl)piperidin-1-yl)pyrimidin-4-ylamino)benzamide metabolite by LC/MS/MS analysis", "assay_type": "ADME, organism-based", "conditions": "in vivo"}, "Canis familiaris [4]": {"species": "Canis familiaris", "assay": "Drug metabolism in dog assessed as 3-fluoro-4-(5-fluoro-6-(4-(3-(2-fluoropropan-2-yl)-1,2,4-oxadiazol-5-yl)piperidin-1-yl)pyrimidin-4-ylamino)-N-methylbenzamide metabolite by LC/MS/MS analysis", "assay_type": "ADME, organism-based, Canis lupus familiaris", "conditions": "in vivo"}, "Mus musculus [5]": {"species": "Mus musculus", "assay": "Drug metabolism in mouse assessed as 3-fluoro-4-(5-fluoro-6-(4-(3-(2-fluoropropan-2-yl)-1,2,4-oxadiazol-5-yl)piperidin-1-yl)pyrimidin-4-ylamino)-N-methylbenzamide metabolite by LC/MS/MS analysis", "assay_type": "ADME, organism-based", "conditions": "in vivo"}, "Mus musculus [6]": {"species": "Mus musculus", "assay": "Drug metabolism in mouse assessed as 3-fluoro-4-(5-fluoro-6-(4-(3-(2-fluoropropan-2-yl)-1,2,4-oxadiazol-5-yl)piperidin-1-yl)pyrimidin-4-ylamino)benzamide metabolite by LC/MS/MS analysis", "assay_type": "ADME, organism-based", "conditions": "in vivo"}, "Canis familiaris [7]": {"species": "Canis familiaris", "assay": "Drug metabolism in dog assessed as 3-fluoro-4-(5-fluoro-6-(4-(3-(2-fluoropropan-2-yl)-1,2,4-oxadiazol-5-yl)piperidin-1-yl)pyrimidin-4-ylamino)benzamide metabolite by LC/MS/MS analysis", "assay_type": "ADME, organism-based, Canis lupus familiaris", "conditions": "in vivo"}, "Canis familiaris [8]": {"species": "Canis familiaris", "assay": "Drug metabolism in dog assessed as 3-fluoro-4-(5-fluoro-6-(4-(3-(2-fluoropropan-2-yl)-l, 2,4-oxadiazol-5-yl)piperidin-l -yl)pyrimidin-4-ylamino)benzoic acid metabolite by LC/MS/MS analysis", "assay_type": "ADME, organism-based, Canis lupus familiaris", "conditions": "in vivo"}, "Rhesus monkey [9]": {"tested_on": "Rhesus monkey", "assay": "Drug metabolism in monkey assessed as 3-fluoro-4-(5-fluoro-6-(4-(3-(2-fluoropropan-2-yl)-1,2,4-oxadiazol-5-yl)piperidin-1-yl)pyrimidin-4-ylamino)-N-methylbenzamide metabolite by LC/MS/MS analysis", "assay_type": "ADME, organism-based, Macaca mulatta", "conditions": "in vivo"}, "Rhesus monkey [10]": {"tested_on": "Rhesus monkey", "assay": "Drug metabolism in monkey assessed as 3-fluoro-4-(5-fluoro-6-(4-(3-(2-fluoropropan-2-yl)-1,2,4-oxadiazol-5-yl)piperidin-1-yl)pyrimidin-4-ylamino)benzamide metabolite by LC/MS/MS analysis", "assay_type": "ADME, organism-based, Macaca mulatta", "conditions": "in vivo"}, "Rattus norvegicus [11]": {"species": "Rattus norvegicus", "assay": "Drug metabolism in rat assessed as 3-fluoro-4-(5-fluoro-6-(4-(3-(2-fluoropropan-2-yl)-l, 2,4-oxadiazol-5-yl)piperidin-l -yl)pyrimidin-4-ylamino)benzoic acid metabolite by LC/MS/MS analysis", "assay_type": "ADME, organism-based", "conditions": "in vivo"}, "Mus musculus [12]": {"species": "Mus musculus", "assay": "Drug metabolism in mouse assessed as 3-fluoro-4-(5-fluoro-6-(4-(3-(2-fluoropropan-2-yl)-l, 2,4-oxadiazol-5-yl)piperidin-l -yl)pyrimidin-4-ylamino)benzoic acid metabolite by LC/MS/MS analysis", "assay_type": "ADME, organism-based", "conditions": "in vivo"}, "Rhesus monkey [13]": {"tested_on": "Rhesus monkey", "assay": "Drug metabolism in monkey assessed as 3-fluoro-4-(5-fluoro-6-(4-(3-(2-fluoropropan-2-yl)-l, 2,4-oxadiazol-5-yl)piperidin-l -yl)pyrimidin-4-ylamino)benzoic acid metabolite by LC/MS/MS analysis", "assay_type": "ADME, organism-based, Macaca mulatta", "conditions": "in vivo"}, "[14]": {"target": "T1, Glucose-dependent insulinotropic receptor", "assay": "Agonist activity at GPR119 expressed in CHO-K1 cells assessed as cAMP level after 1 hr by homogenous time-resolved fluorescence assay", "assay_type": "functional, cell-based"}},
  "data": [
    {"smiles": "CCc1cnc(N2CCC(C3Cc4cc(C5CCN(S(C)(=O)=O)CC5)ncc4O3)CC2)nc1", "note": "(stereo not given)", "values": [
      {"measurement": "EC50", "setting": "[1]", "result": 2, "unit": "nM"}
    ]},
    {"smiles": "CN(C)C(=O)c1ccc(Nc2ncnc(N3CCC(c4nc(C(C)(C)F)no4)CC3)c2F)c(F)c1", "values": [
      {"measurement": "Drug metabolism", "setting": "Rattus norvegicus [2]", "result": "Active"},
      {"measurement": "Drug metabolism", "setting": "Rattus norvegicus [3]", "result": "Active"},
      {"measurement": "Drug metabolism", "setting": "Canis familiaris [4]", "result": "Active"},
      {"measurement": "Drug metabolism", "setting": "Mus musculus [5]", "result": "Active"},
      {"measurement": "Drug metabolism", "setting": "Mus musculus [6]", "result": "Active"},
      {"measurement": "Drug metabolism", "setting": "Canis familiaris [7]", "result": "Active"},
      {"measurement": "Drug metabolism", "setting": "Canis familiaris [8]", "result": "Active"},
      {"measurement": "Drug metabolism", "setting": "Rhesus monkey [9]", "result": "Active"},
      {"measurement": "Drug metabolism", "setting": "Rhesus monkey [10]", "result": "Active"},
      {"measurement": "Drug metabolism", "setting": "Rattus norvegicus [11]", "result": "Active"},
      {"measurement": "Drug metabolism", "setting": "Mus musculus [12]", "result": "Active"},
      {"measurement": "Drug metabolism", "setting": "Rhesus monkey [13]", "result": "Active"}
    ]},
    {"smiles": "CCc1cnc(N2CCC(C3Cc4cc(-c5ccc(C(=O)N6CC(F)(F)C6)cc5)ccc4O3)CC2)nc1", "note": "(stereo not given)", "values": [
      {"measurement": "EC50", "setting": "[1]", "result": 228, "unit": "nM"}
    ]},
    {"smiles": "CC(C)(F)c1noc(C2CCN(c3ncnc(Nc4ccc(C(=O)O)cc4F)c3F)CC2)n1", "values": [
      {"measurement": "EC50", "setting": "[14]", "result": 100000, "unit": "nM"}
    ]}
  ]
}
